What was measured:
KDR(h) = biological target: T1, KDR(h) (Homo sapiens, UniProt P35968); test: Upstate KinaseProfiler enzyme assay, KDR; type: biochemical; conditions: 500 nM compound; read-out: Percent inhibition at 500 nM KDR(h)
T1 construct: purchased Upstate Biotechnology (Dundee, UK), KinaseProfiler service
Method: (§1) Further enzyme assays were conducted at Upstate Biotechnology (Dundee, UK) in the KinaseProfiler™ Assay system.
(§2) The general protocol is as follows. All kinases are pre-diluted to a 10× working concentration prior to addition into the assay. The composition of the dilution buffer for the kinases is 20 mM MOPS pH 7.0, 1 mM EDTA, 0.1% β-mercaptoethanol, 0.01% Brij-35, 5% glycerol, 1 mg/ml BSA. All substrates are dissolved and diluted to working stocks in de-ionised water.

BaF3 wild-type cells = test: Cellular screening, BaF3 wild-type cells, Alamar Blue; type: cell-based; conditions: Mus musculus, 40 hr, read-out: BAF3wt IC50_nM
Method: For screening purposes, compounds were diluted in 96 well plates at a concentration of 20 μM. Plates were warmed at 37° C. for 30 minutes before the assay was performed.
The growth factor dependant myelomonocytic cell line BaF3 bearing the pTET-off plasmid (Clontech) was transfected with either pTELJAK2 or pTELJAK3, and the transfected cells were selected for growth-factor independent cell growth. The BaF3 wild-type cells were cultured in DMEM containing 10% FCS, 10% WEHI 3B conditioned medium. The BaF3 TELJAK cells ([…]) were cultured in DMEM 10% Tet-System Approved FBS (without WEHI 3B conditioned medium).
Cell suspensions were prepared by harvesting cells from culture (the cells used in this test were in late log phase growth with high viability.) Cells were diluted in the appropriate growth medium, as described above, to 1.1× final concentration (from 50,000 cell/mL to 200,000 cell/mL, depending on cell line).
Compounds to be tested were added (10 μL, 10× final concentration) to a flat bottomed 96-well plate. The cellular suspension (90 μL per well) was then added, and the plate incubated for 40 hr at 37° C., 5% CO2. Alamar Blue 10 μL per well was added and the plates returned to the incubator for a further 4-6 hours. The plates were then read at 544 nm.

human JAK3 = biological target: T2, human JAK3 (Homo sapiens, UniProt P52333); test: Alphascreen tyrosine kinase enzyme assay, JAK3 kinase domain; type: biochemical; conditions: read-out: JAK3 IC50_nM
T2 construct: The kinase domain of human JAK3 was amplified; GST (N); made in house; host or cells: Sf9 insect cells (baculovirus)
T2 sequence (P52333 822-1111 limits assumed): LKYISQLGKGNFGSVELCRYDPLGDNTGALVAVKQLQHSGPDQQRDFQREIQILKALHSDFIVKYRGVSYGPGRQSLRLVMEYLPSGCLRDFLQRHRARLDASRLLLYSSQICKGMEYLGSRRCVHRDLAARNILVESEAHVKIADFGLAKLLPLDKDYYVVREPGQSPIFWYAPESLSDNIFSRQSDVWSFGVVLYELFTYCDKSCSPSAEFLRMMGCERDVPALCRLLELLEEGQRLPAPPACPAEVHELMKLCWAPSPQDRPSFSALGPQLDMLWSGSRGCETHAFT
Method in brief: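 GST-affinity-purified human JAK3 kinase domain (baculovirus/Sf9) was pre-incubated 20 min with compound ([…]) in HEPES pH 7.5 buffer with MgCl2, vanadate and Tween 20. Biotinylated peptide substrate ([…]) and ATP were then added; phosphotyrosine was detected by AlphaScreen PY100 acceptor and streptavidin donor beads after 2–3 h.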

BTK(h) = biological target: T3, BTK(h) (Homo sapiens, UniProt Q06187); test: Upstate KinaseProfiler enzyme assay, BTK; type: biochemical; conditions: 500 nM compound; read-out: Percent inhibition at 500 nM BTK(h)
T3 construct: purchased Upstate Biotechnology (Dundee, UK), KinaseProfiler service
T3 sequence (Q06187 whole entry): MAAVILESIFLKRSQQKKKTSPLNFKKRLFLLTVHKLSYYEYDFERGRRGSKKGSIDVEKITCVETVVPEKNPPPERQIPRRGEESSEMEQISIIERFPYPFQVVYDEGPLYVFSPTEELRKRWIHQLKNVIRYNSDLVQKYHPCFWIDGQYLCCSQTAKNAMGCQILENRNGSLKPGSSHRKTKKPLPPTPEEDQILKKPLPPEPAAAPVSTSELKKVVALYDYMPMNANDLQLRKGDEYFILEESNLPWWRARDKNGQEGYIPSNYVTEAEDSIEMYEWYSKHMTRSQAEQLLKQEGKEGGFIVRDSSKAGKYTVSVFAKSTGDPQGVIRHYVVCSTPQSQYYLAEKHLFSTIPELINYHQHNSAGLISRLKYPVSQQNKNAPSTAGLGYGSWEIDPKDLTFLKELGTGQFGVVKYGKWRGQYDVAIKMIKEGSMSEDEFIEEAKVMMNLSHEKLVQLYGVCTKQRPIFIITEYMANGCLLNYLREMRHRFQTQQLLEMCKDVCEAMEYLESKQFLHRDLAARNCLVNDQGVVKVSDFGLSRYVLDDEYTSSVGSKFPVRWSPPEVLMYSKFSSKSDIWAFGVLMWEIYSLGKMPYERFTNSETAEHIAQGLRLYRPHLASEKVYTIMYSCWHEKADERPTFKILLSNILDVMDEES
Method: as §1, §2

Bmx(h) = biological target: T4, Bmx(h) (Homo sapiens, UniProt P51813); test: Upstate KinaseProfiler enzyme assay, Bmx; type: biochemical; conditions: 500 nM compound; read-out: Percent inhibition at 500 nM Bmx(h)
T4 construct: purchased Upstate Biotechnology (Dundee, UK), KinaseProfiler service
T4 sequence (P51813 1-675): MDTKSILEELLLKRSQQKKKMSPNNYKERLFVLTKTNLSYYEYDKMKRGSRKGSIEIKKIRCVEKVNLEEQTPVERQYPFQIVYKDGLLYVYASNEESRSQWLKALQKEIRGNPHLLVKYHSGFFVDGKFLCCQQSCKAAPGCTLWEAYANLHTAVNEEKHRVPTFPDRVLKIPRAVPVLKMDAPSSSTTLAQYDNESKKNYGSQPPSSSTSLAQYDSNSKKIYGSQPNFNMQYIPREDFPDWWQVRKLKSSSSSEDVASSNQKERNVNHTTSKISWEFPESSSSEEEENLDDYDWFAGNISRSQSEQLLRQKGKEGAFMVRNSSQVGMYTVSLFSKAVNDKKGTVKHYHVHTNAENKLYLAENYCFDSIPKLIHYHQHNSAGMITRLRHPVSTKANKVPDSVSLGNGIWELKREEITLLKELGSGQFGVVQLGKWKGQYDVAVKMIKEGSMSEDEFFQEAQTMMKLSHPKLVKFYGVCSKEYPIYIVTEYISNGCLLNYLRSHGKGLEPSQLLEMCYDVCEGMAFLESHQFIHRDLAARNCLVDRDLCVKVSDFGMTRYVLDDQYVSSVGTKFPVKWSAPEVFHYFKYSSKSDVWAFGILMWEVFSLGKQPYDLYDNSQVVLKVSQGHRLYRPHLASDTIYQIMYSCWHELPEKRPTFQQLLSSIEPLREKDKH
Method: as §1, §2

Blk(m) = biological target: T5, Blk(m) (Mus musculus, UniProt P16277); test: Upstate KinaseProfiler enzyme assay, Blk; type: biochemical; conditions: 500 nM compound; read-out: Percent inhibition at 500 nM Blk(m)
T5 construct: purchased Upstate Biotechnology (Dundee, UK), KinaseProfiler service
T5 sequence (P16277 whole entry): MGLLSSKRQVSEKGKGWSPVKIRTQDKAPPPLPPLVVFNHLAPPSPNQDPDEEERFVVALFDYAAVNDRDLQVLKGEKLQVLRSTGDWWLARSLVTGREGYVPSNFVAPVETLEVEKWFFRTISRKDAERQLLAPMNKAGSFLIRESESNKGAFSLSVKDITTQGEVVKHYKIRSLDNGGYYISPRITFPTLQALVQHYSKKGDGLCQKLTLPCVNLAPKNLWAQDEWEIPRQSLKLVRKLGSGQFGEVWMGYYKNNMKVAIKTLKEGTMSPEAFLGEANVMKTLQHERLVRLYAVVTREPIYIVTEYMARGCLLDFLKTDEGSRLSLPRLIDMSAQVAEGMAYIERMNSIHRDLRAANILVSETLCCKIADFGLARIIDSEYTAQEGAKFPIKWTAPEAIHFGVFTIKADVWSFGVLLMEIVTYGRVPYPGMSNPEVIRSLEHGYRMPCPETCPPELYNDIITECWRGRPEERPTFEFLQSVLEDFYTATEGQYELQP
Method: as §1, §2

T1 sequence (P35968 20-1356): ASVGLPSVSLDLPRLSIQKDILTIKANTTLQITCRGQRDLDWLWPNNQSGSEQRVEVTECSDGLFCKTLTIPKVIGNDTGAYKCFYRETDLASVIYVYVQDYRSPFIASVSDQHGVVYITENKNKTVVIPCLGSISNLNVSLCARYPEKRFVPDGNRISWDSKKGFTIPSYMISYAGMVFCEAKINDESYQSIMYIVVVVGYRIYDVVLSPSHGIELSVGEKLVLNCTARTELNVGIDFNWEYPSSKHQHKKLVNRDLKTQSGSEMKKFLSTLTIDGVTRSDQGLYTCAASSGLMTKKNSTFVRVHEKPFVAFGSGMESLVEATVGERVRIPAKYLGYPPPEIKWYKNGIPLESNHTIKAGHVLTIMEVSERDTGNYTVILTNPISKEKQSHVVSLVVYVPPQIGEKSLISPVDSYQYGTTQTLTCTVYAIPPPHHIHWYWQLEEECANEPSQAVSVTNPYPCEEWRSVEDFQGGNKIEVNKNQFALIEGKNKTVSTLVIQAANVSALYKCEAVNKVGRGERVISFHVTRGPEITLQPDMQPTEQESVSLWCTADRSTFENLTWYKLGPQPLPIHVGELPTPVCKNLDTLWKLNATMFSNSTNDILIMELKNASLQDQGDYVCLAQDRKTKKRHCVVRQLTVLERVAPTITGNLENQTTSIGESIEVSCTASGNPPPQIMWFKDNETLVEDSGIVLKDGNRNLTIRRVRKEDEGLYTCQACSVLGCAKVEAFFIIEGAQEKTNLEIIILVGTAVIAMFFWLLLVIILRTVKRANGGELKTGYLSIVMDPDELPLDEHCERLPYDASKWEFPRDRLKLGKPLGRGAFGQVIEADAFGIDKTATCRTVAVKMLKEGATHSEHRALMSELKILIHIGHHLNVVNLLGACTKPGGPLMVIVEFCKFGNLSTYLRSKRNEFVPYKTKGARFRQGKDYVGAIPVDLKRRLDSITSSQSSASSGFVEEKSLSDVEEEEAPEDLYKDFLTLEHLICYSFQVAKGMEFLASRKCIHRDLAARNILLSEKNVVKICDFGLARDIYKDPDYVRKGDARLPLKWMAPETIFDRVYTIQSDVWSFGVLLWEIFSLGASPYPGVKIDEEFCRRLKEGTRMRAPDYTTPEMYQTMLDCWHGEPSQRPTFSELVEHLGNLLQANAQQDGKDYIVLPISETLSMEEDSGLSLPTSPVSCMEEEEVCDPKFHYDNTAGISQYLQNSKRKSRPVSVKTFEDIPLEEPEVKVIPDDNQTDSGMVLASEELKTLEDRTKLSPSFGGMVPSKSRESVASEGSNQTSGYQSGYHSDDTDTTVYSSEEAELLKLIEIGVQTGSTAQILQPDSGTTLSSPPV

Row | SMILES | inhibition at 0.5 µM (KDR(h)) [%] | IC50 (BaF3 wild-type cells) [nM] | IC50 (human JAK3) [nM] | inhibition at 0.5 µM (BTK(h)) [%] | inhibition at 0.5 µM (Bmx(h)) [%] | inhibition at 0.5 µM (Blk(m)) [%]
1 | C=CC(=O)Nc1cccc(Sc2ccnc(Nc3cccc(N4CCOCC4)c3)n2)c1 [Compound 110, N-(3-(2-(3-morpholinophenylao)pyrimidin-4-ylthio)phenyl)acrylamide] | 100 | < 20000 | < 100 | 100 | 100 | 100
2 | C=CC(=O)NCc1ccc(Sc2ccnc(Nc3ccc(N4CCOCC4)cc3)n2)cc1 [Compound 111, N-(4-(2-(4-morpholinophenylamino)pyrimidin-4-ylthio)benzyl)acrylamide] | 100 | < 20000 | < 100 | 100 | 100 | 100
3 | C=CC(=O)Nc1ccc(Sc2ccnc(Nc3ccc(N4CCOCC4)cc3)n2)cc1 [Compound 25, N-(4-(2-(4-morpholinophenylamino)pyrimidin-4-ylthio)phenyl)acrylamide] |  | > 20000 | < 100 | 83 | 97 | 71
4 | C=CC(=O)Nc1ccc(Sc2ccnc(Nc3cccc(N4CCOCC4)c3)n2)cc1 [Compound 77, N-(4-(2-(3-morpholinophenylao)pyrimidin-4-ylthio)phenyl)acrylamide] | 100 | < 5000 | < 100 | 100 | 100 | 100
5 | C=CC(=O)NCc1cccc(Sc2ccnc(Nc3ccc(N4CCOCC4)cc3)n2)c1 [Compound 112, N-(3-(2-(4-morpholinophenylamino)pyrimidin-4-ylthio)benzyl)acrylamide] | 100 | > 20000 | < 100 | 100 | 100 | 100
6 | C=CC(=O)Nc1ccc(Sc2ccnc(Nc3ccc(N4CCOCC4)cc3)n2)cc1OC [Compound 123, N-(2-methoxy-4-(2-(4-morpholinophenylao)pyrimidin-4-ylthio)phenyl)acrylamide] | 100 | < 5000 | < 100 | 100 | 100 | 100
7 | C=CC(=O)Nc1cccc(Sc2ccnc(Nc3ccc(N4CCOCC4)cc3)n2)c1 [Compound 23, N-(3-(2-(4-morpholinophenylamino)pyrimidin-4-ylthio)phenyl)acrylamide] |  | < 20000 | < 100 | 84 | 100 | 97
8 | C=CC(=O)Nc1cccc(Nc2nccc(Sc3ccc(OC)cc3)n2)c1 [Compound 42, N-(3-(4-(4-methoxyphenylthio)pyrimidin-2-ylao)phenyl)acrylamide] | 100 | < 20000 | < 100 | 100 | 100 | 59
9 | NCc1cccc(Sc2ccnc(Nc3ccc(N4CCOCC4)cc3)n2)c1 [Compound 75, 4-(3-(aomethyl)phenylthio)-N-(4-morpholinophenyl)pyrimidin-2-ae] |  | < 20000 | < 500 |  |  | 
10 | Cc1cnc(Nc2cccc(N3CCN(C)CC3)c2)nc1Sc1ccc(N)cc1 [Compound 245, 4-(4-aophenylthio)-5-methyl-N-(3-(4-methylpiperazin-1-yl)phenyl)pyrimidin-2-ae] |  | < 1000 | < 500 |  |  | 
11 | CNC(=O)/C=C\C(=O)Nc1ccc(Sc2nc(Nc3ccc(N4CCOCC4)cc3)ncc2C)cc1 [Compound 389, N1-methyl-N4-(4-(5-methyl-2-(4-morpholinophenylao)pyrimidin-4-ylthio)phenyl)maleamide] |  | < 20000 | < 100 |  |  | 
12 | c1cc(Sc2ccc(Cn3cnnn3)cc2)nc(Nc2ccc(N3CCOCC3)cc2)n1 [Compound 109, 4-(4-((1H-tetrazol-1-yl)methyl)phenylthio)-N-(4-morpholinophenyl)pyrimidin-2-ae] |  | < 20000 | < 500 |  |  | 
13 | C=CC(=O)Nc1ccc(Sc2nc(Nc3ccc(NS(C)(=O)=O)c(OC)c3)ncc2C)cc1 [Compound 296, N-(4-(2-(3-methoxy-4-(methylsulfonamido)phenylao)-5-methylpyrimidin-4-ylthio)phenyl)acrylamide] |  | < 5000 | < 100 |  |  | 
14 | Cc1cnc(Nc2ccc(N3CCOCC3)cc2)nc1Sc1ccc(N)nc1 [Compound 262, 4-(6-aopyridin-3-ylthio)-5-methyl-N-(4-morpholinophenyl)pyrimidin-2-ae] |  | > 20000 | < 500 |  |  | 
15 | N#CCNCc1cccc(Sc2ccnc(Nc3ccc(N4CCOCC4)cc3)n2)c1 [Compound 68, 2-(3-(2-(4-morpholinophenylao)pyrimidin-4-ylthio)benzylao)acetonitrile] |  | > 20000 | < 500 |  |  | 
16 | Nc1ccc(Sc2ccnc(Nc3ccc(N4CCOCC4)cc3)n2)cc1 [Compound 27, 4-(4-aophenylthio)-N-(4-morpholinophenyl)pyrimidin-2-ae] |  | < 20000 | < 1000 |  |  | 
17 | OCc1ccc(Sc2ccnc(Nc3ccc(N4CCOCC4)cc3)n2)cc1 [Compound 67, (4-(2-(4-morpholinophenylao)pyrimidin-4-ylthio)phenyl)methanol] |  | < 20000 | < 500 |  |  | 
18 | Cc1cnc(Nc2ccc(N3CCOCC3)cc2)nc1Sc1ccc(NC(=O)CSCC(=O)O)cc1 [Compound 230, 2-(2-(4-(5-methyl-2-(4-morpholinophenylao)pyrimidin-4-ylthio)phenylao)-2-oxoethylthio)acetic acid] |  | > 20000 | < 100 |  |  | 
19 | Nc1ccc(Sc2nc(Nc3ccc(N4CCOCC4)cc3)ncc2F)cc1 [Compound 263, 4-(4-aophenylthio)-5-fluoro-N-(4-morpholinophenyl)pyrimidin-2-ae] |  | < 5000 | < 500 |  |  | 
20 | C=CC(=O)Nc1ccc(Nc2nccc(SC)n2)cc1 [Compound 13, N-(4-(4-(methylthio)pyrimidin-2-ylao)phenyl)acrylamide] |  | > 20000 | < 100 |  |  | 
21 | C=CC(=O)Nc1ccc(Sc2nc(Nc3ccc(N4CCOCC4)cc3)ncc2C)cc1CC [Compound 260, N-(2-ethyl-4-(5-methyl-2-(4-morpholinophenylao)pyrimidin-4-ylthio)phenyl)acrylamide] |  | > 20000 | < 100 |  |  | 
22 | Nc1ccc(Sc2nc(Nc3cccc(N4CCOCC4)c3)ncc2I)cc1 [Compound 264, 4-(4-aophenylthio)-5-iodo-N-(3-morpholinophenyl)pyrimidin-2-ae] |  | < 5000 | < 500 |  |  | 
23 | COc1ccc(Nc2ncc(C)c(Sc3ccc(N)cc3)n2)cc1OC [Compound 240, 4-(4-aophenylthio)-N-(3,4-dimethoxyphenyl)-5-methylpyrimidin-2-ae] |  | < 1000 | < 500 |  |  | 
24 | C=CC(=O)Nc1ccc(Sc2ccnc(Nc3cc(C)cc(C)c3)n2)cc1 [Compound 82, N-(4-(2-(3,5-dimethylphenylao)pyrimidin-4-ylthio)phenyl)acrylamide] |  | < 20000 | < 100 |  |  | 

Source: patent publication US8846704B2, “Thiopyrimidine-based compounds and uses thereof” (YM Biosciences Austraila Pty Ltd, priority 2007, dated 2014)
